According to patent US12655116B2, “Substituted isophthalic acid diamides” (Bayer Aktiengesellschaft, priority 2020, dated 2026):

Legend:
PHBPU [1] = experiment: Pre-emergence herbicidal action against PHBPU; format: in vivo, Pharbitis purpurea; conditions: Ipomoea purpurea, 504 h, dosage 80 g/ha
Procedure, shortened: (§1)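 Greenhouse pots of sandy loam held seeds covered with soil, onto which the compound was applied before emergence. An aqueous suspension or emulsion of WP or EC was used at 600 to 800 l/ha with 0.2% wetting agent. Percent damage was judged visually at 3 weeks.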

DIGSA [2] = experiment: Pre-emergence herbicidal action against DIGSA; format: in vivo, Digitaria sanguinalis; conditions: Digitaria sanguinalis, 504 h; for pest or weed control at 20 g/ha: dosage 20 g/ha; for pest or weed control at 80 g/ha: dosage 80 g/ha
Procedure, shortened: as §1

VERPE [3] = experiment: Pre-emergence herbicidal action against VERPE; format: in vivo, Veronica persica; conditions: Veronica persica, 504 h
Procedure, shortened: as §1

SETVI [4] = experiment: Post-emergence herbicidal action against SETVI; format: in vivo, Setaria viridis; conditions: Setaria viridis, 504 h; for pest or weed control at 20 g/ha: dosage 20 g/ha; for pest or weed control at 5 g/ha: dosage 5 g/ha
Procedure, shortened: (§2)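 A WP or EC formulation diluted in water with 0.2% wetting agent was sprayed at 600 to 800 l/ha onto one-leaf-stage plants grown in sandy loam. About 3 weeks later, action was rated visually in percent, 100% being dead plants.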

MATIN [5] = experiment: Pre-emergence herbicidal action against MATIN; format: in vivo, Matricaria inodora; conditions: Tripleurospermum inodorum, 504 h; for pest or weed control at 20 g/ha: dosage 20 g/ha; for pest or weed control at 80 g/ha: dosage 80 g/ha
Procedure, shortened: as §1

ECHCG [6] = experiment: Pre-emergence herbicidal action against ECHCG; format: in vivo, Echinochloa crus-galli; conditions: Echinochloa crus-galli, 504 h
Procedure, shortened: as §1

SETVI [7] = experiment: Pre-emergence herbicidal action against SETVI; format: in vivo, Setaria viridis; conditions: Setaria viridis, 504 h; for pest or weed control at 80 g/ha: dosage 80 g/ha; for pest or weed control at 20 g/ha: dosage 20 g/ha
Procedure, shortened: as §1

POLCO [8] = experiment: Post-emergence herbicidal action against POLCO; format: in vivo, Polygonum convolvulus; conditions: Fallopia convolvulus, 504 h, dosage 20 g/ha
Procedure, shortened: as §2

AMARE [9] = experiment: Pre-emergence herbicidal action against AMARE; format: in vivo, Amaranthus retroflexus; conditions: Amaranthus retroflexus, 504 h, scored visually after 3 weeks vs untreated controls, 100% = plants have died, 0% = like control plants
Procedure, shortened: as §1

VIOTR [10] = experiment: Pre-emergence herbicidal action against VIOTR; format: in vivo, Viola tricolor; conditions: Viola tricolor, 504 h; for pest or weed control at 80 g/ha: dosage 80 g/ha; for pest or weed control at 20 g/ha: dosage 20 g/ha
Procedure, shortened: as §1

LOLRI [11] = experiment: Pre-emergence herbicidal action against LOLRI; format: in vivo, Lolium rigidum; conditions: Lolium rigidum, 504 h
Procedure, shortened: as §1

MATIN [12] = experiment: Post-emergence herbicidal action against MATIN; format: in vivo, Matricaria inodora; conditions: Tripleurospermum inodorum, 504 h, dosage 20 g/ha
Procedure, shortened: as §2

AMARE [13] = experiment: Post-emergence herbicidal action against AMARE; format: in vivo, Amaranthus retroflexus; conditions: Amaranthus retroflexus, 504 h, 20 g/ha, visual assessment about 3 weeks after treatment, 100% = plants have died, 0% = like control plants
Procedure, shortened: as §2

VERPE [14] = experiment: Post-emergence herbicidal action against VERPE; format: in vivo, Veronica persica; conditions: Veronica persica, 504 h, 20 g/ha
Procedure, shortened: as §2

ABUTH [15] = experiment: Post-emergence herbicidal action against ABUTH; format: in vivo, Abutilon theophrasti; conditions: Abutilon theophrasti, 504 h, visual assessment about 3 weeks after treatment vs untreated controls; for pest or weed control at 20 g/ha: dosage 20 g/ha
Procedure, shortened: as §2

VIOTR [16] = experiment: Post-emergence herbicidal action against VIOTR; format: in vivo, Viola tricolor; conditions: Viola tricolor, 504 h
Procedure, shortened: as §2

LOLRI [17] = experiment: Post-emergence herbicidal action against LOLRI; format: in vivo, Lolium rigidum; conditions: Lolium rigidum, 504 h, dosage 20 g/ha
Procedure, shortened: as §2

AVEFA [18] = experiment: Post-emergence herbicidal action against AVEFA; format: in vivo, Avena fatua; conditions: Avena fatua, 504 h, visual assessment about 3 weeks after treatment, 100% = plants have died, 0% = like control plants
Procedure, shortened: as §2

ALOMY [19] = experiment: Post-emergence herbicidal action against ALOMY; format: in vivo, Alopecurus myosuroides; conditions: Alopecurus myosuroides, 504 h, visual assessment about 3 weeks after treatment vs untreated controls; for pest or weed control at 5 g/ha: dosage 5 g/ha; for pest or weed control at 20 g/ha: dosage 20 g/ha
Procedure, shortened: as §2

ABUTH [20] = experiment: Pre-emergence herbicidal action against ABUTH; format: in vivo, Abutilon theophrasti; conditions: Abutilon theophrasti, 504 h; for pest or weed control at 80 g/ha: scored visually after 3 weeks vs untreated controls (100% = plants have died, 0% = like control plants); for pest or weed control at 20 g/ha: dosage 20 g/ha, scored visually after 3 weeks vs untreated controls, 100% = plants have died, 0% = like control plants, read-out: Pre-emergence action against ABUTH (herbicidal activity in percent)
Procedure, shortened: as §1

PHBPU [21] = experiment: Post-emergence herbicidal action against PHBPU; format: in vivo, Pharbitis purpurea; conditions: Ipomoea purpurea, 504 h, dosage 20 g/ha
Procedure, shortened: as §2

ECHCG [22] = experiment: Post-emergence herbicidal action against ECHCG; format: in vivo, Echinochloa crus-galli; conditions: Echinochloa crus-galli, 504 h, dosage 20 g/ha
Procedure, shortened: as §2

ALOMY [23] = experiment: Pre-emergence herbicidal action against ALOMY; format: in vivo, Alopecurus myosuroides; conditions: Alopecurus myosuroides, 504 h, pre-emergence; for pest or weed control at 80 g/ha: scored visually after 3 weeks vs untreated controls (100% = plants have died, 0% = like control plants); for pest or weed control at 20 g/ha: scored visually after 3 weeks, 100% = plants have died, 0% = like control plants
Procedure, shortened: as §1

AVEFA [24] = experiment: Pre-emergence herbicidal action against AVEFA; format: in vivo, Avena fatua; conditions: Avena fatua, 504 h; 80 g/ha, pre-emergence
Procedure, shortened: as §1

POLCO [25] = experiment: Pre-emergence herbicidal action against POLCO; format: in vivo, Polygonum convolvulus; conditions: Fallopia convolvulus, 504 h, dosage 80 g/ha
Procedure, shortened: as §1

STEME [26] = experiment: Pre-emergence herbicidal action against STEME; format: in vivo, Stellaria media; conditions: Stellaria media, 504 h
Procedure, shortened: as §1

DIGSA [27] = experiment: Post-emergence herbicidal action against DIGSA; format: in vivo, Digitaria sanguinalis; conditions: Digitaria sanguinalis, 504 h
Procedure, shortened: as §2

HORMU [28] = experiment: Pre-emergence herbicidal action against HORMU; format: in vivo, Hordeum murinum; conditions: Hordeum murinum, 504 h; 80 g/ha, pre-emergence
Procedure, shortened: as §1

STEME [29] = experiment: Post-emergence herbicidal action against STEME; format: in vivo, Stellaria media; conditions: Stellaria media, 504 h
Procedure, shortened: as §2

HORMU [30] = experiment: Post-emergence herbicidal action against HORMU; format: in vivo, Hordeum murinum; conditions: Hordeum murinum, 504 h, dosage 20 g/ha
Procedure, shortened: as §2

Structure (SMILES) | pest or weed control at 20 g/ha (DIGSA [2]) | pest or weed control at 80 g/ha (DIGSA [2]) | pest or weed control at 20 g/ha (SETVI [4]) | pest or weed control at 20 g/ha (MATIN [5]) | pest or weed control at 80 g/ha (MATIN [5]) | pest or weed control at 80 g/ha (ECHCG [6]) | pest or weed control at 80 g/ha (SETVI [7]) | pest or weed control at 20 g/ha (AMARE [9]) | pest or weed control at 80 g/ha (AMARE [9]) | pest or weed control at 80 g/ha (VIOTR [10]) | pest or weed control at 80 g/ha (LOLRI [11]) | pest or weed control at 20 g/ha (AMARE [13]) | pest or weed control at 20 g/ha (ABUTH [15]) | pest or weed control at 5 g/ha (VIOTR [16]) | pest or weed control at 20 g/ha (VIOTR [16]) | pest or weed control at 20 g/ha (LOLRI [17]) | pest or weed control at 20 g/ha (AVEFA [18]) | pest or weed control at 20 g/ha (ALOMY [19]) | pest or weed control at 80 g/ha (ABUTH [20]) | pest or weed control at 20 g/ha (ABUTH [20]) | further results
CCNC(=O)c1c(Br)ccc(C(=O)Nc2nnnn2C)c1Cl [Example 1-178, 4-bromo-2-chloro-N^3-ethyl-N^1-(1-methyl-1H-tetrazol-5-yl)isophthalamide] | 100% | 100% | 90% | 90% | 100% | 100% | 100% | 100% | 100% | 100% | 80% | 100% | 80% | 80% | 80% | 80% | 80% | 100% | 100% | 90% | pest or weed control at 80 g/ha (PHBPU [1]): 80%; pest or weed control at 20 g/ha (VERPE [3]; dosage 20 g/ha): 80%; pest or weed control at 80 g/ha (VERPE [3]; dosage 80 g/ha): 80%; pest or weed control at 20 g/ha (ECHCG [6]; 20 g/ha): 80%; pest or weed control at 20 g/ha (POLCO [8]): 80%; pest or weed control at 20 g/ha (MATIN [12]): 90%; pest or weed control at 20 g/ha (VERPE [14]): 80%; pest or weed control at 5 g/ha (ABUTH [15]; dosage 5 g/ha): 80%; pest or weed control at 5 g/ha (ALOMY [19]): 90%; pest or weed control at 20 g/ha (PHBPU [21]): 80%; pest or weed control at 20 g/ha (ECHCG [22]): 90%; pest or weed control at 80 g/ha (ALOMY [23]): 100%; pest or weed control at 20 g/ha (ALOMY [23]): 80%; pest or weed control at 80 g/ha (AVEFA [24]): 100%
Cn1nnnc1NC(=O)c1ccc(Cl)c(C(=O)NC2CC2)c1Cl [Example 1-173] | 100% | 100% | 90% | 80% | 100% | 100% | 100% | 100% | 100% | 90% | 90% | 100% | 90% | 90% | 90% | 90% | 100% | 80% | 100% | 90% | pest or weed control at 80 g/ha (PHBPU [1]): 90%; pest or weed control at 80 g/ha (POLCO [25]): 80%; pest or weed control at 20 g/ha (STEME [26]; dosage 20 g/ha): 80%; pest or weed control at 80 g/ha (STEME [26]; dosage 80 g/ha): 100%; pest or weed control at 5 g/ha (SETVI [4]): 90%; pest or weed control at 5 g/ha (DIGSA [27]): 90%; pest or weed control at 20 g/ha (DIGSA [27]): 100%; pest or weed control at 20 g/ha (SETVI [7]): 90%; pest or weed control at 20 g/ha (VIOTR [10]): 80%; pest or weed control at 20 g/ha (LOLRI [11]; 20 g/ha): 80%; pest or weed control at 80 g/ha (HORMU [28]): 90%; pest or weed control at 20 g/ha (STEME [29]; 20 g/ha): 100%; pest or weed control at 5 g/ha (STEME [29]; dosage 5 g/ha): 80%; pest or weed control at 5 g/ha (AVEFA [18]; 5 g/ha): 90%; pest or weed control at 20 g/ha (ECHCG [22]): 80%; pest or weed control at 80 g/ha (ALOMY [23]): 100%; pest or weed control at 20 g/ha (ALOMY [23]): 80%; pest or weed control at 80 g/ha (AVEFA [24]): 100%; pest or weed control at 20 g/ha (HORMU [30]): 90%
Cn1nnnc1NC(=O)c1ccc(Br)c(C(=O)NC2CC2)c1Cl [Example 1-179] | 100% | 100% | 90% | 90% | 100% | 100% | 100% | 100% | 100% | 100% | 90% | 100% | 80% | 80% | 90% | 80% | 90% | 90% | 100% | 80% | pest or weed control at 5 g/ha (SETVI [4]): 90%; pest or weed control at 5 g/ha (DIGSA [27]): 90%; pest or weed control at 20 g/ha (DIGSA [27]): 90%; pest or weed control at 20 g/ha (SETVI [7]): 80%; pest or weed control at 20 g/ha (POLCO [8]): 80%; pest or weed control at 20 g/ha (VIOTR [10]): 100%; pest or weed control at 20 g/ha (MATIN [12]): 80%; pest or weed control at 20 g/ha (VERPE [14]): 80%; pest or weed control at 5 g/ha (ALOMY [19]): 90%; pest or weed control at 20 g/ha (ECHCG [22]): 90%; pest or weed control at 80 g/ha (ALOMY [23]): 100%; pest or weed control at 20 g/ha (ALOMY [23]): 80%; pest or weed control at 80 g/ha (AVEFA [24]): 100%
